The record followed here is patent publication US20240116985A1, “STAPLED PEPTIDES AND METHODS THEREOF” (priority 2020, published 2024).

The data set can be described thus: CHI Log D procedure. It counts as physicochemical. Conditions: for chromatographic logD: pH 7.4, CHI Log D.

By chromatographic logD is commonly meant lipophilicity estimated from chromatographic retention. Take `CC(=O)N[C@@H](Cc1ccccc1)C(=O)N[C@@H](CC(=O)O)C(=O)N[C@@H](C)C(=O)N[C@]1(C)CCCCCCC=CCOC(=O)N(C)C[C@@](C)(C(=O)N[C@@H](Cc2ccccc2)C(=O)N[C@@H](Cc2c[nH]c3ccccc23)C(=O)N[C@@H](CCC(N)=O)C(N)=O)NC(=O)[C@H](C(C)C)NC(=O)[C@H](Cc2ccccc2)NC(=O)[C@H](C)NC(=O)[C@H](C)NC(=O)[C@H](CC(=O)O)NC(=O)[C@H](CC(=O)O)NC1=O` [I-34, Ac-Phe-Asp-Ala-R8-Asp-Asp-Ala-Ala-Phe-Val-SgN-Phe-Trp-Gln-NH2]: the chromatographic logD came out at 1.32.

As to `CC(=O)N[C@@H](Cc1ccccc1)C(=O)N[C@@H](CC(=O)O)C(=O)N[C@@H](C)C(=O)N[C@]1(C)CCC=CCOC(=O)N(C)CCC[C@@](C)(C(=O)N[C@@H](Cc2ccccc2)C(=O)N[C@@H](Cc2c[nH]c3ccccc23)C(=O)N[C@@H](CCC(N)=O)C(N)=O)NC(=O)[C@H](C(C)C)NC(=O)[C@H](Cc2ccccc2)NC(=O)[C@H](C)NC(=O)[C@H](C)NC(=O)[C@H](CC(=O)O)NC(=O)[C@H](CC(=O)O)NC1=O` [I-36, Ac-Phe-Asp-Ala-R4-Asp-Asp-Ala-Ala-Phe-Val-SeN-Phe-Trp-Gln-NH2], the chromatographic logD turned out to be 1.13.

`CC(=O)N[C@@H](Cc1ccccc1)C(=O)N[C@@H](CC(=O)O)C(=O)N[C@@H](C)C(=O)N[C@]1(C)CCCC=CCOC(=O)N(C)CC[C@@](C)(C(=O)N[C@@H](Cc2ccccc2)C(=O)N[C@@H](Cc2c[nH]c3ccccc23)C(=O)N[C@@H](CCC(N)=O)C(N)=O)NC(=O)[C@H](C(C)C)NC(=O)[C@H](Cc2ccccc2)NC(=O)[C@H](C)NC(=O)[C@H](C)NC(=O)[C@H](CC(=O)O)NC(=O)[C@H](CC(=O)O)NC1=O` [I-37, Ac-Phe-Asp-Ala-R5-Asp-Asp-Ala-Ala-Phe-Val-SdN-Phe-Trp-Gln-NH2] yielded a chromatographic logD of 1.16. The chromatographic logD values of the last two molecules are within 0.2 log units of each other.

Molecule `CC(=O)N[C@@H](Cc1ccccc1)C(=O)N[C@@H](CC(=O)O)C(=O)N[C@@H](C)C(=O)N[C@]1(C)CCCCCC=CCOC(=O)N2CC(C(=O)N[C@@H](Cc3ccccc3)C(=O)N[C@@H](Cc3c[nH]c4ccccc34)C(=O)N[C@@H](CCC(N)=O)C(N)=O)(C2)NC(=O)[C@H](C(C)C)NC(=O)[C@H](Cc2ccccc2)NC(=O)[C@H](C)NC(=O)[C@H](C)NC(=O)[C@H](CC(=O)O)NC(=O)[C@H](CC(=O)O)NC1=O` [I-38, Ac-Phe-Asp-Ala-R7-Asp-Asp-Ala-Ala-Phe-Val-Az-Phe-Trp-Gln-NH2] returned a chromatographic logD of 1.21.

On to `CC(=O)N[C@@H](Cc1ccccc1)C(=O)N[C@@H](CC(=O)O)C(=O)N[C@@H](C)C(=O)N[C@]1(C)CCN(C)C(=O)OCC=CCC[C@@](C)(C(=O)N[C@@H](Cc2ccccc2)C(=O)N[C@@H](Cc2c[nH]c3ccccc23)C(=O)N[C@@H](CCC(N)=O)C(N)=O)NC(=O)[C@H](C(C)C)NC(=O)[C@H](Cc2ccccc2)NC(=O)[C@H](C)NC(=O)[C@H](C)NC(=O)[C@H](CC(=O)O)NC(=O)[C@H](CC(=O)O)NC1=O` [I-42, Ac-Phe-Asp-Ala-RdN-Asp-Asp-Ala-Ala-Phe-Val-S4-Phe-Trp-Gln-NH2], for which the “CHI Log D” value (pH 7.4) is 1.09.

`CC(=O)N[C@@H](Cc1ccccc1)C(=O)N[C@@H](CC(=O)O)C(=O)N[C@]1(C)CCCCCCC=CCOC(=O)N2CC[C@@](C(=O)N[C@@H](C)C(=O)N[C@@H](Cc3ccccc3)C(=O)N[C@@H](Cc3c[nH]c4ccccc34)C(=O)N[C@@H](CCC(N)=O)C(N)=O)(C2)NC(=O)[C@H](Cc2ccccc2)NC(=O)[C@H](C)NC(=O)[C@H](C)NC(=O)[C@H](CC(=O)O)NC(=O)[C@H](CC(=O)O)NC(=O)[C@H](C)NC1=O` [I-51, Ac-Phe-Asp-R8-Ala-Asp-Asp-Ala-Ala-Phe-PyrS-Ala-Phe-Trp-Gln-NH2] gave a chromatographic logD of 1.25.
